16 compounds from PubChem BioAssay AID256 (DTP/NCI, 2004) can be followed below.

Several values for one entry are separate records, joined by “and”; a condition that tells them apart may be missing. Equal entries are not always repeated. Toxic doses and inconclusive results are not listed.

This test has as its system CD2F1 mice, L1210 leukemia ip, survival T/C. Description: NCI In Vivo Anticancer Drug Screen. Data for tumor model L1210 Leukemia (intraperitoneal) in CD2F1 (CDF1) mice. The conditions noted are these: higher = longer survival. In outline: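 Implant tumor; dose compound or vehicle; measure endpoint in both groups; report treated divided by control.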
Setting [1] is: endpoint: mean survival time, dose: 100.0 mg/kg/injection, schedule: Q01DX001 (ip), vehicle: saline with Tween-80.
Where [2] appears, read: endpoint: mean survival time, dose: 200.0 mg/kg/injection, schedule: Q01DX001 (ip), vehicle: saline with Tween-80.
[3] abbreviates: endpoint: mean survival time, dose: 400.0 mg/kg/injection, schedule: Q01DX001 (ip), vehicle: saline with Tween-80.
Where [4] appears, read: endpoint: mean survival time, dose: 100.0 mg/kg/injection, schedule: Q04DX003 (ip), vehicle: saline with Tween-80.
[5] abbreviates: endpoint: mean survival time, dose: 200.0 mg/kg/injection, schedule: Q04DX003 (ip), vehicle: saline with Tween-80.
[6] abbreviates: endpoint: mean survival time, dose: 400.0 mg/kg/injection, schedule: Q04DX003 (ip), vehicle: saline with Tween-80.
[7] abbreviates: endpoint: mean survival time, dose: 100.0 mg/kg/injection, schedule: Q01DX009 (ip), vehicle: saline with Tween-80.
Setting [8] is: endpoint: mean survival time, dose: 200.0 mg/kg/injection, schedule: Q01DX009 (ip), vehicle: saline with Tween-80.
Where [9] appears, read: endpoint: mean survival time, dose: 400.0 mg/kg/injection, schedule: Q01DX009 (ip), vehicle: saline with Tween-80.

With `CCCCCCCCCCCCCCCCCCCCCC(=O)CCCCCCCCCCCCCCCCCCCCC`, the T/C by setting is: under setting [1], 86 % of control; under setting [2], 93 % of control; under setting [3], 101 % of control.

`CC(CO)(CO)[N+](=O)[O-]`: the T/C is, setting by setting: (endpoint: mean survival time, dose: 100.0 mg/kg/injection, schedule: Q01DX009 (ip), vehicle: saline) 98 % of control; (endpoint: mean survival time, dose: 200.0 mg/kg/injection, schedule: Q01DX009 (ip), vehicle: saline) 102 % of control; (endpoint: mean survival time, dose: 400.0 mg/kg/injection, schedule: Q01DX009 (ip), vehicle: saline) 104 % of control.

As for `NC(CSCc1ccccc1)C(=O)OCc1ccccc1` (stereo unspecified), the T/C was 104 % of control under setting [4], 102 % of control under setting [5] and 104 % of control under setting [6].

For `COc1ccc(NC(=O)Nc2ccc([N+](=O)[O-])cc2OC)c(Cl)c1`, the T/C by setting is: (endpoint: mean survival time, dose: 25.0 mg/kg/injection, schedule: Q04DX002 (ip), vehicle: saline with Tween-80) 88 % of control and 101 % of control; (endpoint: mean survival time, dose: 50.0 mg/kg/injection, schedule: Q04DX002 (ip), vehicle: saline with Tween-80) 95 % of control and 103 % of control; under setting [1], 94 % of control; under setting [7], 88 % of control and 95 % of control; (endpoint: mean survival time, dose: 100.0 mg/kg/injection, schedule: Q04DX002 (ip), vehicle: saline with Tween-80) 95 % of control; under setting [4], 97 % of control. Further, the T/C is, setting by setting: under setting [2], 101 % of control; under setting [8], 88 % of control and 97 % of control; (endpoint: mean survival time, dose: 200.0 mg/kg/injection, schedule: Q04DX002 (ip), vehicle: saline with Tween-80) 93 % of control; under setting [5], 95 % of control; under setting [3], 86 % of control and 91 % of control; under setting [9], 90 % of control and 100 % of control. In addition, the T/C is, setting by setting: (endpoint: mean survival time, dose: 400.0 mg/kg/injection, schedule: Q04DX002 (ip), vehicle: saline with Tween-80) 98 % of control; under setting [6], 101 % of control.

As to `c1ccc2cc(OCCOCCOc3ccc4ccccc4c3)ccc2c1`, the T/C under setting [1] was 103 % of control, the T/C under setting [2] is 100 % of control and the T/C under setting [3] is 97 % of control.

Consider `CC[C@@]1(OP(=O)(O)O)C(=O)OCc2c1cc1n(c2=O)Cc2cc3ccccc3nc2-1`, for which the T/C was 111 % of control and 112 % of control (endpoint: median survival time, dose: 5.5 mg/kg/injection, schedule: Q04DX002 (ip), vehicle: water); 154 % of control (endpoint: median survival time, dose: 8.25 mg/kg/injection, schedule: Q04HX004 (iv), vehicle: water); 119 % of control and 104 % of control (endpoint: median survival time, dose: 11.0 mg/kg/injection, schedule: Q04DX002 (ip), vehicle: water); 158 % of control and 180 % of control (endpoint: median survival time, dose: 16.5 mg/kg/injection, schedule: Q04HX004 (iv), vehicle: water); 177 % of control and 221 % of control (endpoint: median survival time, dose: 33.0 mg/kg/injection, schedule: Q04HX004 (iv), vehicle: water); 158 % of control and 192 % of control (endpoint: median survival time, dose: 44.0 mg/kg/injection, schedule: Q04DX002 (ip), vehicle: water). The T/C (endpoint: median survival time, dose: 44.0 mg/kg/injection, schedule: Q04HX004 (iv), vehicle: water) is 207 % of control.

On to `CSc1ncnc2c1ccn2C1OC(COP(=O)(O)O)C(O)C1O` (stereo unspecified), for which the T/C runs as follows: (endpoint: mean survival time, dose: 12.5 mg/kg/injection, schedule: Q01DX005 (ip), vehicle: water) 105 % of control; (endpoint: mean survival time, dose: 25.0 mg/kg/injection, schedule: Q01DX005 (ip), vehicle: water) 108 % of control and 111 % of control; (endpoint: mean survival time, dose: 50.0 mg/kg/injection, schedule: Q01DX005 (ip), vehicle: water) 114 % of control and 109 % of control; (endpoint: mean survival time, dose: 150.0 mg/kg/injection, schedule: Q01DX005 (ip), vehicle: water) 121 % of control.

On to `CCCCCCC1=C(O)C(=O)C(CCCCCC)=C(O)C1=O`, for which the T/C (endpoint: mean survival time, dose: 100.0 mg/kg/injection, schedule: Q01DX001 (ip), vehicle: saline) was 100 % of control; the T/C (endpoint: mean survival time, dose: 200.0 mg/kg/injection, schedule: Q01DX001 (ip), vehicle: saline) was 97 % of control; the T/C (endpoint: mean survival time, dose: 400.0 mg/kg/injection, schedule: Q01DX001 (ip), vehicle: saline) was 97 % of control.

For the compound `SC1(SC2(S)CCCCC2)CCCCC1`, the T/C is, setting by setting: under setting [7], 102 % of control; under setting [8], 112 % of control; under setting [9], 103 % of control.

Consider `Nc1ncnc2c1[nH]c(=O)n2C1OC(CO)C2OC21` (stereo unspecified), for which the T/C was 102 % of control (endpoint: mean survival time, dose: 12.5 mg/kg/injection, schedule: Q01DX005 (ip), vehicle: distilled water + Tween-80); 95 % of control (endpoint: mean survival time, dose: 25.0 mg/kg/injection, schedule: Q01DX005 (ip), vehicle: distilled water + Tween-80); 101 % of control (endpoint: mean survival time, dose: 50.0 mg/kg/injection, schedule: Q01DX005 (ip), vehicle: distilled water + Tween-80); 92 % of control (endpoint: mean survival time, dose: 100.0 mg/kg/injection, schedule: Q01DX005 (ip), vehicle: distilled water + Tween-80); 95 % of control (endpoint: mean survival time, dose: 200.0 mg/kg/injection, schedule: Q01DX005 (ip), vehicle: distilled water + Tween-80).

`CC1CCC(c2cc(-c3ccccc3)n(-c3ccccc3)n2)CC1` (stereo unspecified): the T/C was 103 % of control (endpoint: mean survival time, dose: 100.0 mg/kg/injection, schedule: Q04DX003 (ip), vehicle: acetone); 101 % of control (endpoint: mean survival time, dose: 200.0 mg/kg/injection, schedule: Q04DX003 (ip), vehicle: acetone); 93 % of control (endpoint: mean survival time, dose: 400.0 mg/kg/injection, schedule: Q04DX003 (ip), vehicle: acetone).

Regarding `NC(N)=N/N=C/c1cc(Cl)cc(Cl)c1O`, the T/C (endpoint: mean survival time, dose: 18.8 mg/kg/injection, schedule: Q01DX009 (ip), vehicle: saline) was 108 % of control; the T/C (endpoint: mean survival time, dose: 18.8 mg/kg/injection, schedule: Q04DX003 (ip), vehicle: saline) was 106 % of control; the T/C (endpoint: mean survival time, dose: 37.5 mg/kg/injection, schedule: Q01DX009 (ip), vehicle: saline) was 109 % of control; the T/C (endpoint: mean survival time, dose: 37.5 mg/kg/injection, schedule: Q04DX003 (ip), vehicle: saline) is 112 % of control; the T/C (endpoint: mean survival time, dose: 75.0 mg/kg/injection, schedule: Q01DX009 (ip), vehicle: saline) is 94 % of control; the T/C (endpoint: mean survival time, dose: 75.0 mg/kg/injection, schedule: Q04DX003 (ip), vehicle: saline) was 114 % of control.

Turning to `CC(=O)N1NC2C(=O)N(C3CCCCC3)CC2C1c1ccccc1` (stereo unspecified), the T/C was 93 % of control under setting [7], 100 % of control under setting [8] and 93 % of control under setting [9].

With `CCOC(=O)c1c(C)cc(C)cc1C`, the T/C (endpoint: mean survival time, dose: 50.0 mg/kg/injection, schedule: Q01DX001 (ip), vehicle: Klucel (hydroxypropylcellulose) (HPC)) is 99 % of control; the T/C (endpoint: mean survival time, dose: 100.0 mg/kg/injection, schedule: Q01DX001 (ip), vehicle: Klucel (hydroxypropylcellulose) (HPC)) was 102 % of control; the T/C (endpoint: mean survival time, dose: 200.0 mg/kg/injection, schedule: Q01DX001 (ip), vehicle: Klucel (hydroxypropylcellulose) (HPC)) is 96 % of control.

`Nc1nc(N)c2c(Cl)c(CNc3ccc(C(=O)NC(CC(=O)O)C(=O)O)cc3)ccc2n1` (stereo unspecified): the T/C reads like this: (endpoint: mean survival time, dose: 2.0 mg/kg/injection, schedule: Q01DX001 (ip), vehicle: saline) 121 % of control; (endpoint: mean survival time, dose: 2.0 mg/kg/injection, schedule: Q01DX009 (oral), vehicle: saline) 94 % of control; (endpoint: mean survival time, dose: 2.0 mg/kg/injection, schedule: Q03HX024 (ip), vehicle: saline) 101 % of control; (endpoint: mean survival time, dose: 2.0 mg/kg/injection, schedule: Q08DX002 (ip), vehicle: saline) 104 % of control; (endpoint: mean survival time, dose: 4.0 mg/kg/injection, schedule: Q01DX001 (oral), vehicle: saline) 103 % of control; (endpoint: mean survival time, dose: 4.0 mg/kg/injection, schedule: Q01DX009 (ip), vehicle: saline) 120 % of control. Also, the T/C runs as follows: (endpoint: mean survival time, dose: 4.0 mg/kg/injection, schedule: Q01DX009 (sc), vehicle: saline) 98 % of control; (endpoint: mean survival time, dose: 8.0 mg/kg/injection, schedule: Q01DX009 (oral), vehicle: saline) 118 % of control; (endpoint: mean survival time, dose: 8.0 mg/kg/injection, schedule: Q03HX024 (ip), vehicle: saline) 95 % of control; (endpoint: mean survival time, dose: 16.0 mg/kg/injection, schedule: Q01DX001 (oral), vehicle: saline) 120 % of control; (endpoint: mean survival time, dose: 16.0 mg/kg/injection, schedule: Q01DX009 (ip), vehicle: saline) 88 % of control; (endpoint: mean survival time, dose: 16.0 mg/kg/injection, schedule: Q01DX009 (sc), vehicle: saline) 87 % of control. Besides, the T/C (endpoint: mean survival time, dose: 16.0 mg/kg/injection, schedule: Q03HX016 (ip), vehicle: saline) was 98 % of control; the T/C (endpoint: mean survival time, dose: 32.0 mg/kg/injection, schedule: Q01DX009 (oral), vehicle: saline) was 93 % of control; the T/C (endpoint: mean survival time, dose: 512.0 mg/kg/injection, schedule: Q01DX001 (sc), vehicle: saline) was 96 % of control.

With `O=C(CC(NC(=O)OCc1ccccc1)C(=O)O)OCc1ccccc1` (stereo unspecified), the T/C was 103 % of control under setting [4], 95 % of control under setting [5] and 102 % of control under setting [6].
